Test results as given in patent US20010033854A1, “Anti-microbial compositions” (priority 2000, published 2001).
Where two headings read alike, the source gives them in different places.

Experiments:
[1] = system: Staphlococcus epidermidis; test: Growth inhibition of a relevant micro-organism by chelator; assay type: cell-based; conditions: chelator at 3×10^−6 mol.dm^−3 or less
Text: Inhibition is considered significant when growth of the relevant micro-organism on a supporting medium can be reduced by at least 30% preferably by at least 45%.

relevant micro-organism = conditions: cited from earlier work

| SMILES | Significant inhibition of growth (reduced by at least 30%) [1] | other results |
| --- | --- | --- |
| O=C(O)CN(CCN(CC(=O)O)CC(=O)O)CC(=O)O [EDTA, ethylenediaminetetraacetic acid] | exclude | – |
| Oc1cc(Cl)ccc1Oc1ccc(Cl)cc1Cl [triclosan, 2′,4,4′-trichloro-2′-hydroxydiphenyl ether] | – | MIC (relevant micro-organism; literature values): 0.01 to 10 µg/mL |
| CCO [ethanol] | – | MIC (relevant micro-organism; ethanol and similar alkanols): greater than 1 mg.ml^−1 |
| O=C(O)CN(CCN(CCN(CC(=O)O)CC(=O)O)CC(=O)O)CCN(CC(=O)O)CC(=O)O [TTHA, triethylenetetraaminehexaacetic acid] | capable of achieving significant inhibition | – |
| O=C(O)CN(CC(=O)O)[C@@H]1CCCC[C@H]1N(CC(=O)O)CC(=O)O (relative stereo) [CDTA, trans-1,2-diaminocyclohexane-N,N,N′,N′-tetraacetic acid] | exclude | – |
| O=C(O)CN(CCN(CC(=O)O)CC(=O)O)CCN(CC(=O)O)CC(=O)O [DTPA, diethylenetriaminepentaacetic acid] | capable of achieving significant inhibition | – |
| CC(C)=CCCC(C)=CCCC(C)=CCO [farnesol, 3,7,11-trimethyldodeca-2,6,10-trienol] | – | MIC (relevant micro-organism; literature values): ca. 25 μg.ml^−1 |
